Bounds are passed on as bounds.

Usually IC50 stands for the midpoint of a concentration-inhibition curve.

The target of one assay is Angiopoietin-1 receptor (Homo sapiens, UniProt Q02763). The assay can be described thus: Inhibition of TIE-2 (unknown origin) after 4 hrs by ADP-Glo luminescence assay. For orientation: In ADP-Glo the light output rises with the ADP produced.
For assay [1], the target named is Vascular endothelial growth factor receptor 2 (Homo sapiens, UniProt P35968). Nature of the assay: Inhibition of VEGFR-2 (unknown origin) after 60 mins by ADP-Glo luminescence assay.
Sequence of Vascular endothelial growth factor receptor 2 (P35968 whole entry): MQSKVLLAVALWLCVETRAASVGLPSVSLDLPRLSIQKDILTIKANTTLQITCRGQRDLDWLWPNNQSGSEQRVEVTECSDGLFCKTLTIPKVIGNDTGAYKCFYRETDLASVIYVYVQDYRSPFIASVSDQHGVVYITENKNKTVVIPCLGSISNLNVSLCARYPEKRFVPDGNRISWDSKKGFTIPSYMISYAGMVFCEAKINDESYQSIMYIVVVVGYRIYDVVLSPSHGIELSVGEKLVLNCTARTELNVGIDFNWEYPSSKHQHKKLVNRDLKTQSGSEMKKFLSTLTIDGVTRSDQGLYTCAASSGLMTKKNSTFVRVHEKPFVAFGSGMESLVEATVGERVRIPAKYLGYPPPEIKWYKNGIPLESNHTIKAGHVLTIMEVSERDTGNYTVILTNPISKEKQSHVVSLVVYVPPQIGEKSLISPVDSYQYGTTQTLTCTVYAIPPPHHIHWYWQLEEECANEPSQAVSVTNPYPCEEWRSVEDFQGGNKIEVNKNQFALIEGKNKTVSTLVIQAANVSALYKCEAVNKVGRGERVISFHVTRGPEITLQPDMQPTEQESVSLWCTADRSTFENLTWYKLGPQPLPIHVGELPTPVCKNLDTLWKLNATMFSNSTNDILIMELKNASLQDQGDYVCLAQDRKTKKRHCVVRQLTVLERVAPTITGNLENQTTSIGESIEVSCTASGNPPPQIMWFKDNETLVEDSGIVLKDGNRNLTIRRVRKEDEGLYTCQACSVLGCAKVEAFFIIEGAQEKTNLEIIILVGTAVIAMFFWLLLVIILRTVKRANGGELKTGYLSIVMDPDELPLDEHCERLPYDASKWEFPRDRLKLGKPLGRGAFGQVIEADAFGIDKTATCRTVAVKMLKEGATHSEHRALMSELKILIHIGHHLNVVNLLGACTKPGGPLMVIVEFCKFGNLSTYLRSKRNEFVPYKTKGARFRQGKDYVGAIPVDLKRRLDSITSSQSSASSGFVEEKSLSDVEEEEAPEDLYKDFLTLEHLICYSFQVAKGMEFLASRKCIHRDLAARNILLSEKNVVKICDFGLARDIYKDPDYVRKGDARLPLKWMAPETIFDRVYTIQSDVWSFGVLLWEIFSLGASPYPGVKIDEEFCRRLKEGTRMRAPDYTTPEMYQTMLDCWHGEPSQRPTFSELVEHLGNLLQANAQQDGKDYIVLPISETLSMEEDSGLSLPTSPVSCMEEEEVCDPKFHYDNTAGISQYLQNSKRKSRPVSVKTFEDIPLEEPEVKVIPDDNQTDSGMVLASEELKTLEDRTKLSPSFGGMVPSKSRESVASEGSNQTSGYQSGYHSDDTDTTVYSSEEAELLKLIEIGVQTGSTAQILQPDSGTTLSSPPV
A further assay concerns the target T1, Ephrin type-B receptor 4 (Homo sapiens, UniProt P54760).
T1 sequence (P54760 whole entry): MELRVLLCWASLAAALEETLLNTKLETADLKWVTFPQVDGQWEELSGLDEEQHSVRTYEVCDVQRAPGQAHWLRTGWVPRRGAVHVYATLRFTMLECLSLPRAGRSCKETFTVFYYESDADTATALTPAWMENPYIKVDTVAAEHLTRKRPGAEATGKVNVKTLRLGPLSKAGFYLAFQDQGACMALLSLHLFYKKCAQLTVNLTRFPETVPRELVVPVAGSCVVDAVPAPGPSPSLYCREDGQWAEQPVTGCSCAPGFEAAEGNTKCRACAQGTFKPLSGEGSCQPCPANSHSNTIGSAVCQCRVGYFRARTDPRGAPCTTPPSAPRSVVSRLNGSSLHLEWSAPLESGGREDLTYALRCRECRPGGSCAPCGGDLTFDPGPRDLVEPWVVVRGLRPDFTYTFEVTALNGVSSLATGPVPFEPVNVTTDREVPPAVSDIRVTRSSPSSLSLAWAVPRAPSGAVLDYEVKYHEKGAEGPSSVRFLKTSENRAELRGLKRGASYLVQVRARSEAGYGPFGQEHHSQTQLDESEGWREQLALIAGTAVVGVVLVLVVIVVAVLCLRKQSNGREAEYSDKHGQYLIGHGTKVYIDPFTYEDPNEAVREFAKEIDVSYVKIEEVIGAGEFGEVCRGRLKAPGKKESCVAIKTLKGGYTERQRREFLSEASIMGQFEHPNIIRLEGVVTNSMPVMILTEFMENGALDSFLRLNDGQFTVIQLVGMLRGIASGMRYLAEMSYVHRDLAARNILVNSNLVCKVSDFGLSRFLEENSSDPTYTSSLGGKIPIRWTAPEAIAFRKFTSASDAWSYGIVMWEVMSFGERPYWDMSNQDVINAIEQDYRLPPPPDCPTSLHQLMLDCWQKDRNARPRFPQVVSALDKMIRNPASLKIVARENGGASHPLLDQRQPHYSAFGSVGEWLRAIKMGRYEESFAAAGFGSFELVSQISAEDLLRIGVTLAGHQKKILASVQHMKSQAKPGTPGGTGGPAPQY
Nature of the assay: Inhibition of EphB4 (unknown origin) after 4 hrs by ADP-Glo luminescence assay.

The next assay relates to EA.hy 926. The assay can be described thus: Anti-angiogenic activity in human EAhy926 cells as growth inhibition after 24 hrs by CCK-8 assay. Particulars: EA.hy 926, 24 h. The class given is cell-based.
Assay [2] addresses Vascular endothelial growth factor receptor 1 (Homo sapiens, UniProt P17948). Nature of the assay: Inhibition of VEGFR-1 (unknown origin).
Assay [3] addresses Vascular endothelial growth factor receptor 3 (Homo sapiens, UniProt P35916). The assay can be described thus: Inhibition of VEGFR-3 (unknown origin).
Assay [4] addresses Epidermal growth factor receptor (Homo sapiens, UniProt P00533). The assay can be described thus: Inhibition of EGFR (unknown origin).
The target in assay [5] is Fibroblast growth factor receptor 1 (Homo sapiens, UniProt P11362). The assay can be described thus: Inhibition of FGFR-1 (unknown origin).
For assay [6], the target named is Fibroblast growth factor receptor 4 (Homo sapiens, UniProt P22455). Nature of the assay: Inhibition of FGFR-4 (unknown origin).
The target of assay [7] is Platelet-derived growth factor receptor beta (Homo sapiens, UniProt P09619). The assay can be described thus: Inhibition of PDGFRbeta (unknown origin).
Assay [8] concerns the target Insulin-like growth factor 1 receptor (Homo sapiens, UniProt P08069). Nature of the assay: Inhibition of IGF1-R (unknown origin).
The target in assay [9] is Serine/threonine-protein kinase B-raf (Homo sapiens, UniProt P15056). The assay can be described thus: Inhibition of BRAF (unknown origin).
Assay [10] concerns the target Mast/stem cell growth factor receptor Kit (Homo sapiens, UniProt P10721). Nature of the assay: Inhibition of cKIT (unknown origin).
In assay [11] the target is Hepatocyte growth factor receptor (Homo sapiens, UniProt P08581). Nature of the assay: Inhibition of cMET (unknown origin).

Sequence of Angiopoietin-1 receptor (Q02763 whole entry): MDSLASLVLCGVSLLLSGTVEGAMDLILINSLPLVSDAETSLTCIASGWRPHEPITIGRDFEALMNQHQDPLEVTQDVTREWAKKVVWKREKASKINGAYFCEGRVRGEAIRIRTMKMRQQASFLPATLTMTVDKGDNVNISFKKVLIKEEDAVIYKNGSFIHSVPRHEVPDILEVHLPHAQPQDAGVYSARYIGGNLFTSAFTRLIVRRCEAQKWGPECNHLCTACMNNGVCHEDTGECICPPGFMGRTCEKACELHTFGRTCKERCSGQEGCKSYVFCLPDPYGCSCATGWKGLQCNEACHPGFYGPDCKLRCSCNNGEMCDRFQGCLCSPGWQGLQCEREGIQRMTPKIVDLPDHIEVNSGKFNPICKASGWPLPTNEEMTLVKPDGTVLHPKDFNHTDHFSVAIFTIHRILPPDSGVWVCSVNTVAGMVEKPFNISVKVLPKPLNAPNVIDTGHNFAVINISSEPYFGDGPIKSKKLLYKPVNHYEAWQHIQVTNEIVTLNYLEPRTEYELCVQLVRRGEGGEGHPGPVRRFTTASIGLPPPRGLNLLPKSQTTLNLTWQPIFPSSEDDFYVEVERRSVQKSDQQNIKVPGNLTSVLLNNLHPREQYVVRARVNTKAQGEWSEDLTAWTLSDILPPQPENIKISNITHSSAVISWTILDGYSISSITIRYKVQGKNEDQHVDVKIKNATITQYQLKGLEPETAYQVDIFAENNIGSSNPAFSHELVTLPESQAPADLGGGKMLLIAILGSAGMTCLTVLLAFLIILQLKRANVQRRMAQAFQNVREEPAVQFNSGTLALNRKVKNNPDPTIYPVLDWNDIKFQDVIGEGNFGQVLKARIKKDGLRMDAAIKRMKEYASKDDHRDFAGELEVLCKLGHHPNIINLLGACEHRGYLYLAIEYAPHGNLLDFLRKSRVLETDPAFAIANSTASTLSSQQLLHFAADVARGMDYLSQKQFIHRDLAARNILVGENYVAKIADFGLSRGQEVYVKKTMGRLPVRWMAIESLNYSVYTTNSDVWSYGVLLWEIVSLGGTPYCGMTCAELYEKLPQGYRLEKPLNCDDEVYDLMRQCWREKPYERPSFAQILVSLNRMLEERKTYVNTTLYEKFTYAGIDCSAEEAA
Sequence of Mast/stem cell growth factor receptor Kit (P10721 whole entry): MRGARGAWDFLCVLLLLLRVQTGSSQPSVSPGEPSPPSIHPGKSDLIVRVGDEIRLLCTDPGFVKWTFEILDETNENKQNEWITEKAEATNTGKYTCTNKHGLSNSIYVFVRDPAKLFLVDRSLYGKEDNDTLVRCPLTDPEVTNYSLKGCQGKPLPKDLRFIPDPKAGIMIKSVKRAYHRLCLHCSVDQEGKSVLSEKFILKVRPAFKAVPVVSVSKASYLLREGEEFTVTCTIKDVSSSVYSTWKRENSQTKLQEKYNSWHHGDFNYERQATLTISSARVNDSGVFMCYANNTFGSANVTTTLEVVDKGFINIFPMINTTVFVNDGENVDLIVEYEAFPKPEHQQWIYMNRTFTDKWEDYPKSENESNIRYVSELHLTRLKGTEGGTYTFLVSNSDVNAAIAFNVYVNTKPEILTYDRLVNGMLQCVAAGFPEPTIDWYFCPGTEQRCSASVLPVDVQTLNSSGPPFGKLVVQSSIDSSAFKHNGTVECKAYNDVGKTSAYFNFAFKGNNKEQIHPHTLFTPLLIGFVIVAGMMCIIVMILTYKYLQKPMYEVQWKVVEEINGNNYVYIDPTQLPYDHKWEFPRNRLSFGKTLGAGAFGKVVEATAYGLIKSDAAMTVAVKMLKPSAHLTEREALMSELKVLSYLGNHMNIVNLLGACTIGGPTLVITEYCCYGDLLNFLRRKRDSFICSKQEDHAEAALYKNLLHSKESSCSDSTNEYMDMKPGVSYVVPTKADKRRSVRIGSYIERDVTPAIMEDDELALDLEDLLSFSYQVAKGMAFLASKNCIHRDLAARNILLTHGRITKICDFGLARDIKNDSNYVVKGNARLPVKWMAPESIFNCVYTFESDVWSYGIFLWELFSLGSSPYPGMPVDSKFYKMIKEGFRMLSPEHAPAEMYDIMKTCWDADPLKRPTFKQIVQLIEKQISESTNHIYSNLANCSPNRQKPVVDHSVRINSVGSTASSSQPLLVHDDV
Sequence of Insulin-like growth factor 1 receptor (P08069 31-736 limits assumed): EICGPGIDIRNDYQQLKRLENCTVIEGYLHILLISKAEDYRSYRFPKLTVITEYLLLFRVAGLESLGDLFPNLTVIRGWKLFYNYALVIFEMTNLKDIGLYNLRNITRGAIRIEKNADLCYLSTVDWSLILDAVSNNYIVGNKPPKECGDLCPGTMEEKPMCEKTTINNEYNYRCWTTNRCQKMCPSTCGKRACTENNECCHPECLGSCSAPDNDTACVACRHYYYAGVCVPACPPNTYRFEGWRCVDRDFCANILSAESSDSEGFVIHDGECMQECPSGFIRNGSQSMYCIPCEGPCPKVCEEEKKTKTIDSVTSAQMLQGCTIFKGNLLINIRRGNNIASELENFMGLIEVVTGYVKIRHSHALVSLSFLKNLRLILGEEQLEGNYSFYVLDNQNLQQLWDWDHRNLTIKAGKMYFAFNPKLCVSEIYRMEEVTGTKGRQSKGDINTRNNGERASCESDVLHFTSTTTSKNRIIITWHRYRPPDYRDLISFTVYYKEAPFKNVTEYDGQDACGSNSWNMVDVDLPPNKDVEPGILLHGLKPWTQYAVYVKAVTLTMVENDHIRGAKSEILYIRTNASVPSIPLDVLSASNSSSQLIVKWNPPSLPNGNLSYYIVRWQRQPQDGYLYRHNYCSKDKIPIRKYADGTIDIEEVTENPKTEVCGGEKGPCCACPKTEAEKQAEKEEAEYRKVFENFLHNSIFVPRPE
Sequence of Insulin-like growth factor 1 receptor (P08069 741-1367 limits assumed): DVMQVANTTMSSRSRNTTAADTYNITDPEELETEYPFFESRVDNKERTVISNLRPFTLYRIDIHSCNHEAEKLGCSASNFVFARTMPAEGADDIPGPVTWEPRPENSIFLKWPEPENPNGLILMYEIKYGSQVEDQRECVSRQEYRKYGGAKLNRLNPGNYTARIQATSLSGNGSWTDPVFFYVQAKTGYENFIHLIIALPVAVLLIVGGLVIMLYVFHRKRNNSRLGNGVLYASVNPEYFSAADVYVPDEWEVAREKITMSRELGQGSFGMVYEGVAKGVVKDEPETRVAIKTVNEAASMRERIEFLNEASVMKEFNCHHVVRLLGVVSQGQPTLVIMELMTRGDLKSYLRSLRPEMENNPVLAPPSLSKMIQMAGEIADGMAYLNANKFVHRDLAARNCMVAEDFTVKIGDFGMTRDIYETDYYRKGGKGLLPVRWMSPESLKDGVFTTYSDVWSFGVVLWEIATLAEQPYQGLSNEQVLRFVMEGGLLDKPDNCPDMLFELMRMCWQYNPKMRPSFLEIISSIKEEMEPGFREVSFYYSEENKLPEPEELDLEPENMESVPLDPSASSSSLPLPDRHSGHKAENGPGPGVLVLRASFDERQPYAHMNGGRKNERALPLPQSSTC

Regarding `O=C(Nc1cccc(-c2ccc3c(=O)[nH]cnc3c2)c1)Nc1cc(C(F)(F)F)cc(C(F)(F)F)c1`, it took 245 nM to reach half-maximal inhibition against Angiopoietin-1 receptor (IC50).
As for `Nc1ncc2ccc(-c3ccc(NC(=O)C4(C(=O)Nc5ccc6c(c5)OCO6)CC4)cc3)cc2n1`, the IC50 in [1] was > 500 nM; against Angiopoietin-1 receptor, 432 nM; against Ephrin type-B receptor 4 it was > 500 nM; with EA.hy 926, 29200 nM.
`C=CC(=O)Nc1ccc(-c2ccc(NC(=O)Nc3cccc(F)c3)cc2)cn1` showed an IC50 against Angiopoietin-1 receptor of 90.9 nM.
For `C=CC(=O)Nc1ccc(-c2ccc(NC(=O)Nc3ccccc3Cl)cc2)cn1`, the half-maximal inhibitory concentration (IC50) at Angiopoietin-1 receptor worked out at 7.97 nM.
The same measure, in the same setting: as for `Nc1ncc2ccc(-c3ccc(NC(=O)C4(C(=O)Nc5cc(OC(F)(F)F)ccc5Br)CC4)cc3)cc2n1`, the figure is 14.7 nM; as for `O=C(Nc1cccc(Cl)c1)Nc1cccc(-c2ccc3c(=O)[nH]cnc3c2)c1`, 24.8 nM; as for `O=C(Nc1cccc(-c2ccc3c(=O)[nH]cnc3c2)c1)Nc1ccc(Cl)c(C(F)(F)F)c1`, > 500 nM.
Take `Nc1ncc2ccc(-c3ccc(NC(=O)C4(C(=O)Nc5ccc(OCCCN6CCOCC6)c(F)c5)CC4)cc3)cc2n1`: the IC50 in assay [1] is > 500 nM; on Angiopoietin-1 receptor, > 500 nM; on Ephrin type-B receptor 4, > 500 nM; in the assay with EA.hy 926, 32200 nM.
Turning to `C=CC(=O)Nc1ccc(-c2ccc(NC(=O)Nc3c(C)cccc3C)cc2)cn1`, the IC50 on Angiopoietin-1 receptor was > 500 nM.
Same read-out and setting: as for `Nc1ncc2ccc(-c3ccc(NC(=O)C4(C(=O)Nc5cc(Br)cc(C(F)(F)F)c5)CC4)cc3)cc2n1`, the figure is 65.3 nM.
The same measure, in the same setting: as for `Nc1ncc2ccc(-c3ccc(NC(=O)C4(C(=O)Nc5ccc(F)c(F)c5)CC4)cc3)cc2n1`, the figure is 14.5 nM; as for `Nc1ncc2ccc(-c3ccc(NC(=O)C4(C(=O)Nc5ccc(OC(F)(F)F)cc5Br)CC4)cc3)cc2n1`, > 500 nM; as for `O=C(Nc1cccc(-c2ccc3c(=O)[nH]cnc3c2)c1)Nc1cccc(C(F)(F)F)c1`, 12.8 nM.
Still for that read-out and setting: as for `C=CC(=O)Nc1ccc(-c2ccc(NC(=O)Nc3ccc(C(C)(C)C)cc3)cc2)cn1`, the figure is 21.3 nM; as for `C=CC(=O)Nc1ccc(-c2ccc(NC(=O)Nc3ccc(C)c(Cl)c3)cc2)cn1`, 14.2 nM.
Consider `C=CC(=O)Nc1ccc(-c2ccc(NC(=O)Nc3cccc(C(F)(F)F)c3)cc2)cn1`, for which half-maximal inhibition on Angiopoietin-1 receptor (IC50) was put at 3.59 nM.
Still for that read-out and setting: next, `Nc1ncc2ccc(-c3ccc(NC(=O)C4(C(=O)Nc5ccc(Cl)cc5Cl)CC4)cc3)cc2n1`: 54.9 nM.
Turning to `C=CC(=O)Nc1ccc(-c2ccc(NC(=O)Nc3cccc(Cl)c3)cc2)cn1`, the IC50 against Angiopoietin-1 receptor is 5.63 nM; in [2], 25 nM; in [3], 45 nM; in [4], 8.7 nM; in assay [5], 200 nM; in assay [6], 1080 nM. In addition, the IC50 in assay [7] is 180 nM; in assay [8], 40 nM; in assay [9], 32 nM; in [10], 68.9 nM; in assay [11], 57.8 nM.
On to `C=CC(=O)Nc1ccc(-c2ccc(NC(=O)Nc3ccc(F)cc3)cc2)cn1`, for which the half-maximal inhibitory concentration (IC50) against Angiopoietin-1 receptor amounted to 105 nM.
The same measure, in the same setting: next, `C=CC(=O)Nc1ccc(-c2ccc(NC(=O)Nc3ccc(OC(F)(F)F)cc3)cc2)cn1`: 59.9 nM; `O=C(Nc1cccc(-c2ccc3c(=O)[nH]cnc3c2)c1)Nc1ccc(F)c(F)c1`: 16.6 nM; `Nc1ncc2ccc(-c3ccc(NC(=O)C4(C(=O)Nc5ccc(Cl)c(Cl)c5)CC4)cc3)cc2n1`: > 500 nM.
The same measure, in the same setting: next, `Nc1ncc2ccc(-c3ccc(NC(=O)C4(C(=O)Nc5cc(C(F)(F)F)cc(C(F)(F)F)c5)CC4)cc3)cc2n1`: 21.2 nM.
On the same count and under the same terms, as for `C=CC(=O)Nc1ccc(-c2ccc(NC(=O)Nc3cccc(C(C)C)c3)cc2)cn1`, the figure is 9.19 nM; as for `Nc1ncc2ccc(-c3ccc(NC(=O)C4(C(=O)Nc5ccc(Br)cc5OC(F)(F)F)CC4)cc3)cc2n1`, > 500 nM; as for `C=CC(=O)Nc1ccc(-c2ccc(NC(=O)Nc3ccc(Cl)c(C(F)(F)F)c3)cc2)cn1`, 9.77 nM.
`Nc1ncc2ccc(-c3ccc(NC(=O)C4(C(=O)Nc5cc(Br)ccc5OC(F)(F)F)CC4)cc3)cc2n1`: the IC50 at Angiopoietin-1 receptor was > 500 nM.

The values above are taken from ChEMBL document CHEMBL4130538, “Discovery of novel anti-angiogenesis agents. Part 7: Multitarget inhibitors of VEGFR-2, TIE-2 and EphB4” (Eur J Med Chem, 2017).
